Tests used:
FKBP12 [1] = biological target: T1, FKBP12 (Homo sapiens, UniProt P62942); test: QCM microgravimetric measurement of FKBP12 bound to the self-assembled monolayer (SAM), Langmuir fit; type: binding; conditions: for Binding of FKBP12 in solution to the SAM (FIG. 5): mass of FKBP12 bound versus FKBP12 concentration in solution
T1 construct: purchased Interuniversity Magnetic Resonance Consortium of Paramagnetic Metalloproteins, CIRMMP (Florence, Italy); host or cells: Escherichia coli
Procedure: FKBP12 expressed in Escherichia coli, molecular weight 11900, purity >95% was supplied by the Interuniversity Magnetic Resonance Consortium of Paramagnetic Metalloproteins, CIRMMP (Florence, Italy). The purity of FKBP12 was determined by SDS electrophoresis. K2HPO4 and KH2PO4 for the preparation of the phosphate buffer was obtained from Sigma-Aldrich (Italy). All measurements were made using ultrapure water (resistivity=18 MΩ cm, pH=5.6 at 20° C.) obtained with a Milli-RO equipment coupled with a Milli-Q set up (Millipore, Italy).
(§1) The concentration of the stock solutions of FKBP12 in PBS buffer (pH 7.4, 0.15 M NaCl) was checked by UV/Vis measurements using ε280=9970 M^−1 cm^−1. The stock solution of FKBP12 was diluted to reach the concentrations used for the calibration straight line.
(§2) The microgravimetric analyses were carried out with a Quartz-Crystal microbalance (QCM-Z 500 from KSV-Finland). This instrumentation is equipped with a Peltier element for controlling the temperature inside the measurement chamber. All experiments were performed at a temperature of T=20.0±0.1° C.
The frequency and dissipation data for all recorded harmonics were processed with the QCMBrowse software which directly provides adsorbed mass in nanograms/cm^2, thickness of the monolayer in nanometers and viscoelastic parameters of the system.
The gold-coated piezoelectric quartz support covered with the SAMs as described above in Example 2, was brought into contact with solutions of increasing concentration of the FKBP12 protein and the concentration of the protein bound to the self-assembled monolayer SAM at saturation was recorded with gravimetric measurements.
Two different miniaturized versions of an open chamber QCM quartz crystal microbalance (from QCM KSV, Finland and an OpenQCM, Italy modified by the inventors) were also used as a device, allowing the use of small measurement volumes (less than 100 microliters) of the solution to analyse.
Again with reference to FIG. 5, it can be observed that in all the examined cases there is a saturation trend of the curves, which flatten once the sites available for binding the FKBP protein are exhausted. Considering the structure reached at this concentration as the final equilibrium structure, the relative structural parameters reported in the following Table 2 were calculated.
The trend shown in FIG. 5 can be rationalized through the Langmuir binding and/or adsorption equation: Δm/A=(Δm/A)sat[C]/[C]+kd
The application of this model to the data obtained from the microgravimetric measurements allowed to obtain a detailed picture of the interaction mechanism and the energetics involved, in particular we obtained the maximum surface density of FKBP12 (to saturation), the dissociation constant Kd for FKBP12/receptor in the nanosensor and free energy of physi-sorption. The values obtained are shown in Table 3 below, for all the types of SAMs examined.

FKBP12 [2] = biological target: T1, FKBP12; test: Calibration straight line for FKBP12 on the SAM nanosensor (QCM)
Procedure: as §1, §2
From the analysis of the calibration straight lines obtained for the systems examined, the linearity intervals and the experimental limit of detection (LOD) were obtained (wherein LOD means the smallest amount of measurable analyte with acceptable accuracy and precision) for each sensor tested, considering that the maximum sensitivity to the mass in the cell for liquids of the instrumentation used is 0.5 ng/cm^2. This limit may vary depending on the analytical instrumentation adopted for the same SAM used.

FKBP12 [3] = biological target: T1, FKBP12; test: Duration of operation of the SAM and its reconditioning (QCM); conditions: reconditioning with imidazole or with ethanol
Procedure: The microgravimetric measurements described above were repeated on freshly prepared SAMs or aged up to 4 months, finding the same results, at least for SAMs stored in closed containers saturated with N2.
Measurements were also carried out on SAMs already used for a measurement, after reconditioning with imidazole or with ethanol. […] The same result was achieved by leaving in incubation the SAM in solution of the reconditioning solvent.

T1 sequence (P62942 whole entry): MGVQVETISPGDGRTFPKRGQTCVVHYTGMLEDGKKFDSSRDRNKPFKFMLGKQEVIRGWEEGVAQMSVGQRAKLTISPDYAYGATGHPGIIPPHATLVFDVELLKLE

SMILES	Binding of FKBP12 in solution to the SAM (FIG. 5) (FKBP12 [1])	(M/Area)max (Langmuir FIT), maximum surface density of FKBP12 at saturation (FKBP12 [1]; Table 2, SAM on gold-coated quartz crystal)	Kd (FKBP12 [1]; Table 2, SAM on gold-coated quartz crystal, T=20.0 °C, pseudo-Kd for mixed systems)	(Maa/Area)max (Langmuir FIT) (FKBP12 [1]; Table 3)	Area available for FKBP12 to saturation (FKBP12 [1]; Table 3, experimental data, at saturation)	Linear interval of the response to FKBP12 (FKBP12 [2]; FKBP12 concentration in solution, QCM mass sensitivity 0.5 ng/cm^2)	Limit of Detection (LOD) (FKBP12 [2]; LOD = 3x (y-intercept standard deviation)/slope of the calibration curve)	QCM frequency before addition of FKBP12 versus after rinsing with the reconditioning solvent (FKBP12 [3])
CCCCCCCCCCCCS [C12SH, reference compound]	no interaction with the FKBP protein in solution is observed							
O=C(CCCCCCCCCCS)Oc1ccc(C(=O)C(=O)N2CCCC[C@H]2C(=O)NCCCc2ccccc2)cc1 [GPS-SH1, (S)-4-(2-oxo-2-(2-((3-phenylpropyl)carbamoyl)piperidin-1-yl)acetyl)phenyl 11-mercaptoundecanoate]	binds	123 ng/cm^2	0.75 nM	123 ng/cm^2	1910 Å^2	10 to 800 pM	8.0 pM	identical

Source: patent US12497364B2, “Compound for the determination of the protein FKBP12 and a sensor unit comprising it” (UNIVERSITA DEGLI STUDI DI FIRENZE, priority 2019, dated 2025)
